Data published in paper PMC8512853, “Synthesis, Bioactivity, Pharmacokinetic and Biomimetic Properties of Multi-Substituted Coumarin Derivatives” (Molecules, 2021).

Tests used:
[1] = ABTS radical scavenging assay; conditions: 6 min
Experimental: The ABTS radical cation scavenging assay is a decolorization assay frequently used as an antioxidant activity estimation protocol. […] The absorbance is measured at 734 nm and the antioxidant capacity is compared to a standard antioxidant solution, such as ascorbic acid.
For the evaluation of antioxidant activity, the scavenging capacities of all samples were measured via the ABTS assay, as previously described by Kontogiorgis et al. with some modifications. Briefly, an ethanolic standard ABTS solution (7 mM) was prepared by the addition of ABTS salt and potassium persulfate. […] Each sample was diluted in DMSO and tested in triplicate. The tested mixture contained 10–20 µL of sample and 990–980 µL of the ABTS solution, for a total volume of 1 ml. Blank samples contained equal amounts of DMSO instead of the coumarin analogues, and ascorbic acid was used as a reference sample for the final evaluation of the ABTS scavenging capacity. All mixtures were stored at room temperature to allow decolorization and measured after 6 min. The percentage reduction of the ABTS radical was evaluated according to the following Equation (3):(3) % Reduction=Control OD (mean)−Sample OD (mean)/Control OD (mean)×100

HaCaT cells = experiment: DCF-DA assay (intracellular ROS after H2O2); format: cell-based, human; conditions: H2O2 treatment, 24 h; for inhibition at 100 µM: Homo sapiens, 100 μΜ, read-out: DCFDA Assay, % (100 μΜ)
Excerpt: In the setting of evaluating bioactive compounds in terms of antioxidant capacity in various cell lines, DCF-DA is the most widely used assay for the detection of intracellular H2O2 and oxidative stress. DCF-DA is cell-permeable and is hydrolyzed intracellularly to the DCFH carboxylate anion, which is retained in the cell.
DCFDA is a fluorescent dye that measures the activity of hydroxyl radicals, peroxyl radicals, and other reactive oxygen species (ROS) within the cell. The DCFDA analysis protocol is based on the diffusion of DCFDA into the cell. It is then deacetylated from cellular esterases to a non-fluorescent compound, which is later oxidized by ROS to 2’,7’ -dichlorofluoroscein (DCF). The produced compound (DCF) is fluorescent and is detected by fluorescence spectroscopy at 485/535 nm (excitation/emission).
For the experimental procedure a standard solution of DCF-DA (20mM) in DMSO was prepared which was stored in the dark (−20 °C) until use. In a 96-well plate, cells were cultured to a density of 3 × 10^4 cells/well.
The cells remained in the incubator (37 °C, 5% CO2) for 24 h, after which an appropriate amount of H2O2 (2 mM) was added and the dish was returned for incubation for the next 2 h. This was followed by the addition of the test substances (100μM) and incubation for 24 h. At the end of the treatment time, all wells were washed with PBS, and DCF-DA solution (working concentration: 10 μM) (in 200 μL of nutrient) was added and incubated for 40 min.
After incubation, the medium with the DCF-DA was removed and replaced with FBS-free DMEM. The measurement of the […] was made immediately after that in a plate reader at 495/530 nm (excitation/emission).
All samples were tested in triplicates, against a control (without effects), blank (without cells), and positive control (standard 100 μM Ascorbic acid solution was used).
The percentage of antioxidant capacity (%) was calculated according to the following Equation (6) evaluating the presence of ROS [42]:(6) % AI=( OD Sample 530 nm−Blank)−(OD Control 530 nm−Blank)/(OD Control 530 nm−Blank) × 100

[2] = IAM chromatography (IAM.PC.DD.2 column) and estimated human oral absorption; format: in vitro ADME; conditions: for %HOA estimated human oral absorption: Equation (1) from logkw and physicochemical properties; for logkw (IAM retention factor): pH 7.40, IAM.PC.DD.2, intercept at pure aqueous phase
Experimental: The immobilized artificial membrane (IAM) chromatographic behavior of the 25 novel coumarin derivatives was studied. IAM stationary phases consisting of monolayers of phospholipids (e.g., phosphatidylcholine, PC) immobilized on a propylamine–silica support can simulate interactions of chemicals with cell membranes.
Using an IAM.PC.DD2 column (Regis Technologies) as the stationary phase with PBS as the mobile phase at pH = 7.40, and a flow rate of 3 mL/min in the presence of acetonitrile fractions (C%) of 10%, 15%, 20%, 25%, and 30%, a logkC% value was obtained via the retention time for each concentration of CH3CN. Retention factors were then used to plot logkC% as a function of acetonitrile fraction. The intercept of the linear regression corresponds to the logkw, corresponding to pure aqueous phase.
(1) % HOA=100/1+10^−(2.17+0.88*logkw−0.006*MW−0.83*A−0.53*F^*++1.18*F^*−)
The physicochemical and biomimetic properties of the new coumarin analogues were studied using liquid chromatography (HPLC) in 220–230 nm Two types of chromatographic columns were used: (i) immobilized artificial membrane (IAM) ([…].PC.DD.2, Regis Technologies) column and (ii) human serum albumin (HSA) (CHIRAL PAK) column.
The training set consisted of 25 neutral and slightly acidic compounds. Their IAM retention factors were measured at pH 7.40 on a IAM.PC.DD.2 column. The mobile phase consisted of acetonitrile solvent (CH3CN) in various concentrations (10%, 15%, 20%, 25%, 30%) and a flow rate of 3 mL/min was selected. Their HSA retention factors were measured at pH 7.00 on HSA column. The mobile phase consisted of acetonitrile solvent (CH3CN) in 10% concentration and a flow rate of 1 mL/min was selected.
The different pH values (7.00 for HSA and 7.40 for IAM) were measured with an electronic pH meter MP125 and were achieved by preparing suitable buffers of phosphates and chlorides (0.12 g KH2PO4, 0.72 g Na2HPO4·2H2O, 4.00 g NaCl and 0.10 g KCl). Sodium citrate solution was used to determine the dead time, which was deducted from the results at the end of measurements. The elution time of each coumarin analogue was measured at least three times. Retention times were converted into logk values, which represent the logarithm of the retention indexes, using Equation (8). (8) logk=log(tr−t0/t0) where tr is the retention time of the coumarin derivative and t0 is the dead time.

SMILES	ABTS^•+ % (100 μΜ) [1]	DCFDA Assay, % (100 μΜ) (HaCaT cells)	%HOA estimated human oral absorption [2] [%]	logkw (IAM retention factor) [2]	inhibition at 100 µM (HaCaT cells) [%]
Cc1c(-c2cccc(F)c2)c(=O)oc2cccc(O)c12 [Compound 4e, 3-(3-fluorophenyl)-5-hydroxy-4-methyl-chromen-2-one]	69.2%	no	99.9	3.23	
Cc1c(-c2ccc(F)cc2)c(=O)oc2cccc(O)c12 [Compound 4f, 3-(4-fluorophenyl)-5-hydroxy-4-methyl-chromen-2-one]	64.2%	no	99.7	2.62	
Cc1c(-c2ccc(O)cc2)c(=O)oc2ccccc12 [Compound 4h, 3-(4-hydroxyphenyl)-4-methyl-chromen-2-one]	8.6%	no	99.8	3.34	
Cc1c(-c2ccc(O)cc2)c(=O)oc2ccc(Br)cc12 [Compound 4i, 6-bromo-3-(4-hydroxyphenyl)-4-methyl-chromen-2-one]	no		99.9	3.23	100
Cc1c(-c2ccc(O)cc2)c(=O)oc2ccc(Cl)cc12 [Compound 4j, 6-chloro-3-(4-hydroxyphenyl)-4-methyl-chromen-2-one]	no		99.5	3.41	2.1
